In PubChem BioAssay AID248 (DTP/NCI, 2004):
Toxic doses and inconclusive results are not listed. Rule as the data show it: active = T/C of 150% or more; inactive = T/C below 125%.

Tested on: L1210 leukemia ip in BDF1 mice, survival T/C
Experiment: NCI In Vivo Anticancer Drug Screen. Data for tumor model L1210 Leukemia (intraperitoneal) in B6D2F1 (BDF1) mice
Conditions: endpoint: mean survival time, higher = longer survival
In short: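 Read-out is survival time, reported as the treated-group measurement over the vehicle-control measurement.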

[1] = dose: 100.0 mg/kg/injection, schedule: Q04DX003 (ip), vehicle: other
[2] = dose: 200.0 mg/kg/injection, schedule: Q04DX003 (ip), vehicle: other
[3] = dose: 400.0 mg/kg/injection, schedule: Q04DX003 (ip), vehicle: other
[4] = dose: 100.0 mg/kg/injection, schedule: Q01DX009 (ip), vehicle: Klucel (hydroxypropylcellulose) (HPC)
[5] = dose: 100.0 mg/kg/injection, schedule: Q04DX003 (ip), vehicle: Klucel (hydroxypropylcellulose) (HPC)
[6] = dose: 200.0 mg/kg/injection, schedule: Q01DX009 (ip), vehicle: Klucel (hydroxypropylcellulose) (HPC)
[7] = dose: 200.0 mg/kg/injection, schedule: Q04DX003 (ip), vehicle: Klucel (hydroxypropylcellulose) (HPC)
[8] = dose: 400.0 mg/kg/injection, schedule: Q01DX009 (ip), vehicle: Klucel (hydroxypropylcellulose) (HPC)
[9] = dose: 400.0 mg/kg/injection, schedule: Q04DX003 (ip), vehicle: Klucel (hydroxypropylcellulose) (HPC)
[10] = dose: 100.0 mg/kg/injection, schedule: Q01DX001 (ip), vehicle: carboxymethylcellulose (CMC)
[11] = dose: 200.0 mg/kg/injection, schedule: Q01DX001 (ip), vehicle: carboxymethylcellulose (CMC)
[12] = dose: 400.0 mg/kg/injection, schedule: Q01DX001 (ip), vehicle: carboxymethylcellulose (CMC)
[13] = dose: 50.0 mg/kg/injection, schedule: Q01DX001 (ip), vehicle: saline
[14] = dose: 100.0 mg/kg/injection, schedule: Q01DX001 (ip), vehicle: saline
[15] = dose: 200.0 mg/kg/injection, schedule: Q01DX001 (ip), vehicle: saline
[16] = dose: 400.0 mg/kg/injection, schedule: Q01DX001 (ip), vehicle: saline
[17] = dose: 12.5 mg/kg/injection, schedule: Q01DX009 (ip), vehicle: saline with Tween-80
[18] = dose: 25.0 mg/kg/injection, schedule: Q01DX009 (ip), vehicle: saline with Tween-80
[19] = dose: 100.0 mg/kg/injection, schedule: Q04DX003 (ip), vehicle: saline with Tween-80

Measured: T/C

OC(c1ccccc1)C(c1ccccc1)C1CO1 (stereo not drawn)
inactive: dose: 12.5 mg/kg/injection, schedule: Q01DX009 (ip), vehicle: DMSO 88 % of control | dose: 25.0 mg/kg/injection, schedule: Q01DX009 (ip), vehicle: DMSO 91 % of control | [1] 103 % of control | [2] 103 % of control | [3] 94 % of control

BrC(Br)c1ccc2ccccc2n1
inactive: [4] 89 % of control | [5] 95 % of control | [6] 94 % of control | [7] 95 % of control | [8] 94 % of control | [9] 97 % of control

CC(Br)(c1ccccc1)[P+](c1ccccc1)(c1ccccc1)c1ccccc1 (stereo not drawn)
inactive: dose: 15.0 mg/kg/injection, schedule: Q01DX001 (ip), vehicle: carboxymethylcellulose (CMC) 96 % of control | dose: 30.0 mg/kg/injection, schedule: Q01DX001 (ip), vehicle: carboxymethylcellulose (CMC) 101 % of control

CS(=O)(=O)Nc1ccc(NS(C)(=O)=O)c(SCc2ccccc2)c1
inactive: dose: 100.0 mg/kg/injection, schedule: Q01DX001 (ip), vehicle: Klucel (hydroxypropylcellulose) (HPC) 95 % of control | [5] 96 % of control | dose: 200.0 mg/kg/injection, schedule: Q01DX001 (ip), vehicle: Klucel (hydroxypropylcellulose) (HPC) 98 % of control | [7] 89 % of control | dose: 400.0 mg/kg/injection, schedule: Q01DX001 (ip), vehicle: Klucel (hydroxypropylcellulose) (HPC) 95 % of control | [9] 102 % of control

Cc1ccc(N=Nc2c(O)ccc3ccccc23)c([N+](=O)[O-])c1
inactive: dose: 100.0 mg/kg/injection, schedule: Q01DX001 (ip), vehicle: other 96 % of control | [1] 95 % of control | dose: 200.0 mg/kg/injection, schedule: Q01DX001 (ip), vehicle: other 95 % of control | [2] 91 % of control | dose: 400.0 mg/kg/injection, schedule: Q01DX001 (ip), vehicle: other 96 % of control | [3] 93 % of control

Nc1ccc2c(c1)C(=O)c1cc(N)ccc1-2
inactive: [10] 102 % of control | [5] 103 % of control | [11] 102 % of control | [7] 103 % of control | [12] 98 % of control | [9] 108 % of control

OCCCOc1ccc(Cl)cc1Cl
inactive: dose: 100.0 mg/kg/injection, schedule: Q04DX002 (sc), vehicle: olive oil, sesame oil, peanut oil 100 % of control | dose: 200.0 mg/kg/injection, schedule: Q04DX002 (sc), vehicle: olive oil, sesame oil, peanut oil 95 % of control | dose: 400.0 mg/kg/injection, schedule: Q04DX002 (sc), vehicle: olive oil, sesame oil, peanut oil 110 % of control

O=S(=O)(CCCc1ccccc1)CCS(=O)(=O)CCCc1ccccc1
inactive: dose: 50.0 mg/kg/injection, schedule: Q01DX009 (ip), vehicle: acetone 98 % of control | dose: 100.0 mg/kg/injection, schedule: Q01DX009 (ip), vehicle: acetone 98 % of control | dose: 200.0 mg/kg/injection, schedule: Q01DX009 (ip), vehicle: acetone 98 % of control

O=C1OC2c3ccccc3C3CC(=O)C2C13 (stereo not drawn)
inactive: [13] 98 % of control | [14] 104 % of control | [15] 98 % of control | [16] 96 % of control

O=C(Nc1cccc(C2=NCCN2)c1)c1ccc(C(=O)Nc2cccc(C3=NCCN3)c2)cc1
inactive: dose: 2.5 mg/kg/injection, schedule: Q01DX Z (ip), vehicle: saline 95 % of control | dose: 5.0 mg/kg/injection, schedule: Q01DX Z (ip), vehicle: saline 111 % of control

CCCCCCCC[N+](C)(CCCCCCCC)CCCCCCCC
inactive: dose: 0.04 mg/kg/injection, schedule: Q01DX009 (ip), vehicle: saline 86 % of control | dose: 0.09 mg/kg/injection, schedule: Q01DX009 (ip), vehicle: saline 100 % of control | dose: 0.19 mg/kg/injection, schedule: Q01DX009 (ip), vehicle: saline 101 % of control | dose: 0.19 mg/kg/injection, schedule: Q04DX003 (ip), vehicle: acetone 112 % of control | dose: 0.28 mg/kg/injection, schedule: Q01DX009 (ip), vehicle: saline with Tween-80 114 % of control | dose: 0.39 mg/kg/injection, schedule: Q01DX001 (ip), vehicle: saline with Tween-80 105 % of control | dose: 0.43 mg/kg/injection, schedule: Q01DX009 (ip), vehicle: saline with Tween-80 116 % of control | dose: 0.5 mg/kg/injection, schedule: Q01DX015 (ip), vehicle: saline 97 % of control | dose: 0.64 mg/kg/injection, schedule: Q01DX009 (ip), vehicle: saline with Tween-80 118 % of control | dose: 0.78 mg/kg/injection, schedule: Q01DX001 (ip), vehicle: saline with Tween-80 90 % of control | dose: 1.0 mg/kg/injection, schedule: Q01DX015 (ip), vehicle: saline 95 % of control | dose: 1.56 mg/kg/injection, schedule: Q01DX001 (ip), vehicle: saline with Tween-80 114 % of control

Nc1cc(Cl)cc2[nH]c(=O)c3cc(Cl)ccc3c12
inactive: [10] 100 % of control | [11] 102 % of control | [12] 95 % of control

COc1cc2ccc(CCN)cc2cc1OC
inactive: [17] 101 % of control | [18] 101 % of control | dose: 50.0 mg/kg/injection, schedule: Q01DX009 (ip), vehicle: saline with Tween-80 105 % of control

CCN(CC)CCOC(=O)C(c1ccccc1)C1C=CCCC1 (stereo not drawn)
inactive: dose: 75.0 mg/kg/injection, schedule: Q01DX001 (ip), vehicle: saline 102 % of control | dose: 150.0 mg/kg/injection, schedule: Q01DX001 (ip), vehicle: saline 92 % of control

CC(=O)Nc1ccc(OC(C)(C)C)cc1
inactive: [13] 101 % of control | [14] 106 % of control | [15] 97 % of control | [16] 95 % of control

S=C(NCc1cccc2ccccc12)Nc1ccccc1
inactive: [4] 95 % of control | [6] 97 % of control | [8] 104 % of control

COc1ccccc1NC(=S)Nc1ccccc1OC
inactive: [4] 102 % of control | dose: 100.0 mg/kg/injection, schedule: Q01DX009 (ip), vehicle: saline sonified 97 % of control | dose: 100.0 mg/kg/injection, schedule: Q01DX009 (ip), vehicle: saline with Tween-80 90 % of control | [5] 93 % of control | dose: 100.0 mg/kg/injection, schedule: Q04DX003 (ip), vehicle: saline sonified 110 % of control | [19] 92 % of control | [6] 94 % of control | dose: 200.0 mg/kg/injection, schedule: Q01DX009 (ip), vehicle: saline sonified 97 % of control | dose: 200.0 mg/kg/injection, schedule: Q01DX009 (ip), vehicle: saline with Tween-80 101 % of control | [7] 98 % of control | dose: 200.0 mg/kg/injection, schedule: Q04DX003 (ip), vehicle: saline sonified 95 % of control | dose: 200.0 mg/kg/injection, schedule: Q04DX003 (ip), vehicle: saline with Tween-80 96 % of control | dose: 400.0 mg/kg/injection, schedule: Q01DX009 (ip), vehicle: saline sonified 86 % of control | dose: 400.0 mg/kg/injection, schedule: Q01DX009 (ip), vehicle: saline with Tween-80 93 % of control | [9] 96 % of control | dose: 400.0 mg/kg/injection, schedule: Q04DX003 (ip), vehicle: saline sonified 116 % of control | dose: 400.0 mg/kg/injection, schedule: Q04DX003 (ip), vehicle: saline with Tween-80 92 % of control

CC1(C)C2CCC(C2)C12CC(F)(F)C(F)(F)S2 (stereo not drawn)
inactive: [17] 97 % of control | [18] 100 % of control | dose: 25.0 mg/kg/injection, schedule: Q04DX003 (ip), vehicle: saline with Tween-80 101 % of control | dose: 50.0 mg/kg/injection, schedule: Q04DX003 (ip), vehicle: saline with Tween-80 101 % of control | [19] 103 % of control

CCCCNC(c1ccc(C=NC(CC)(CO)CO)cc1)C(Br)(Br)Br (stereo not drawn)
inactive: [14] 92 % of control | dose: 100.0 mg/kg/injection, schedule: Q01DX009 (ip), vehicle: saline 88 % of control | [15] 92 % of control | dose: 200.0 mg/kg/injection, schedule: Q01DX009 (ip), vehicle: saline 90 % of control | [16] 97 % of control | dose: 400.0 mg/kg/injection, schedule: Q01DX009 (ip), vehicle: saline 91 % of control
